The source of these data is US10870647B2, “Imidazopyridine derivative, method for preparing same, and pharmaceutical composition containing same as active ingredient for preventing or treating cancer” (DAEGU-GYEONGBUK MEDICAL INNOVATION FOUNDATION, priority 2016, dated 2020).

Assay type in all cases: cell-based
The subject of one assay is MDA-MB-231. The experiment in a line: Real time cell proliferation, IncuCyte ZOOM, 72 hours. Particulars: Homo sapiens, MDA-MB-231, 72 h.
For the next assay, the system named is Huh7. As to the kind of experiment: Cancer cell proliferation inhibition, MTS assay, 72 hours. Conditions: Homo sapiens, Huh-7. How it is done: (§1) MTS assay was performed to evaluate the cancer cell proliferation inhibition (cancer cell apoptosis) effect of the compounds of examples of the present invention. Particularly, the assay was performed using the cancer cell lines GIST-T1, GIST-T1/816, GIST-430, GIST-430/654, GIST-R1, GIST-R3, M-NFS-60, RetParental (Ba/F3), Retwt (Ba/F3), RetV804M (Ba/F3), RET (LC2/ad-CDC6), FYN (MCP-1), FYN (FN), MDA-MB-231, Huh7, K562, T315I(Ba/F3), SK-MEL-28 and A375. Cell culture was performed using a medium suitable for each cell line.
(§2) Other cell lines were seeded in a 96-well plate containing the corresponding medium appropriate for each cell line at the density of 3,000 cells/well, followed by culture in a 5% CO2 and 37° C. incubator for 24 hours. The compounds of examples of the present invention were added to each well at the concentration of from the highest volume of 50 μM to every step of serial dilution. The solvent control, dimethylsulfoxide (DMSO), was treated at the same concentration of 0.05% (v/v) as the volume used for the treatment of the compounds above. Each cell line was cultured for 72 hours. To investigate the cell viability, the MTS and PMS (phenazine methosulfate) mixture provided in CellTiter 96® AQuous Non-Radioactive Cell Proliferation Assay Kit (Promega) was added to each cell culture medium, followed by additional culture at 37° C. for 2 hours. Then, OD450 was measured. Based on OD of the solvent control cells not treated with any compounds of the present invention, the cell proliferation inhibition rate was calculated according to the treatment concentration of each compound. At this time, the concentration of each compound that was able to inhibit cancer cell proliferation up to 50% was determined as IC50 (uM). IC50 of each compound was determined with three data sets and calculated by using Prism softwater (version 6.01, GraphPad).
(In general: Tetrazolium dyes change colour on reduction, which living cells bring about.)

The next assay concerns SK-MEL-28. Described as above. Particulars: Homo sapiens. On the procedure: as §1, §2
A further assay deals with K562. The experiment in a line: Cancer cell proliferation inhibition, CCK-8, 72 hours. Particulars: Homo sapiens, K562, 72 h. How it is done: as §1
(§3) In the meantime, MDA-MB-231 and A375 cells were seeded in a 96well plate at the density of 2×10^3/100 μl/well, which stood for a day for attachment. The culture fluid was eliminated. After removing the culture medium, the medium was replaced with the culture medium containing the compounds of the present invention at 3-times serially diluted 9 concentrations (0.0015-10 μM) and the DMSO control, followed by incubation in a 37° C. CO2 incubator for 72 hours. On the other hand, K-562 and Ba/F3-T315I cells were seeded in a 96-well plate at the density of 1×10^4/90 μl/well. The plate containing K-562 cells was added with the culture medium containing the compounds of the present invention at 3-times serially diluted 9 concentrations (0.015-100 μM) and the DMSO control (10 μl/well). The plate containing Ba/F3-T315I cells was added with the culture medium containing the compounds of the present invention at 5-times serially diluted 9 concentrations (0.000256-100 μM) and the DMSO control (10 μl/well). The final concentration was made 0-10 μM and then the cells were cultured in a 37° C. CO2 incubator for 72 hours.
(§4) A375, K-562 and Ba/F3-T315I cells were added with CCK-8 solution at the concentration of 10 μl/well, followed by orbital shaking for 30 seconds. Then, the cells were cultured in a 37° C. CO2 incubator for 2 hours. OD450 was measured by using a microplate reader. The OD value of the well treated with the culture medium and CCK-8 solution alone was subtracted from the OD value measured above, followed by calculation of IC50 using GraphPad Prism 6 software.

The subject of a further assay is A375. The description is as above. Conditions: Homo sapiens, A-375, 72 h. On the procedure: as §1, §3, §4
In a further assay the target is T1, T315I (Ba/F3) (Homo sapiens, UniProt P00519, T315I, cells depend on it).
T1 construct: fused on or other part: P11274 (Breakpoint cluster region protein)
The description is as above. Conditions: read-out: T315I (Ba/F3) IC50. How it is done:
as §1, §3, §4

A further assay relates to RET (LC2/ad-CDC6). The experiment in a line: Cancer cell proliferation inhibition, MTS assay, 72 hours. Conditions: 72 h. How it is done:
as §1, §2

The test system of a further assay is M-NFS-60. As to the kind of experiment: Cancer cell proliferation inhibition, CCK-8, 72 hours. How it is done:
as §1
M-NFS-60 cell line was cultured in the complete growth medium prepared by adding 10% FBS, 0.05 mM 2-mercaptoethanol and 62 ng of human M-CSF to RPMI. When the confluence reached 80% in T-75 flask, the cells were collected in a 50 ml tube for seeding, followed by centrifugation at 800 rpm for 5 minutes. The cells were suspended in 10 mL of growth medium. The cell number was counted by using a hematocytometer to determine the necessary cell number and the medium volume for seeding. The cells were seeded in a 96-well plate at the density of 20000 cells/well (200 μL/well), followed by stabilization in a 37° C. CO2 incubator, while the compounds of the present invention were prepared. The compounds of the present invention were serially diluted with DMSO at the ratio of 1/3 with setting the maximum concentration at 1968 nM, which were loaded in a new V-bottom 96-well plate, resulting in the preparation of total 11 concentrations including the DMSO control. The cells that had been placed in the incubator were taken out, to which the compounds of the present invention were added (2 μl/well). The plate treated with the compounds was cultured in a 37° C. CO2 incubator for 72 hours. 72 hours later, the plate treated with the compounds was taken out, to which CCK-8 solution was treated (20 μl/well). After well mixing, the plate was further cultured in a 37° C. CO2 incubator for 2 hours. Then, OD450 was measured by using a microplate reader. To obtain accurate results, the wells displaying bubbles were eliminated from the measurement.

Structures are written as SMILES.

Usually IC50 stands for the concentration that inhibits the measured activity by half. As to `Cc1ccc(C(=O)Nc2ccccc2F)cc1C#Cc1cnc2c(Nc3cnn(C)c3)cccn12` [Example 2, N-(2-fluorophenyl)-4-methyl-3-((8-((1-methyl-1H-pyrazol-4-yl)amino)imidazo[1,2-a]pyridin-3-yl)ethynyl)benzamide], the IC50 in the assay on MDA-MB-231 was above 10000 nM; in the assay on Huh7 it was above 50000 nM; with SK-MEL-28, above 10000 nM; in the assay with K562, 12 nM; in the assay with A375, above 10000 nM. The GI50 at T315I (Ba/F3) was above 10000 nM.
For the molecule `CCN1CCN(Cc2ccc(NC(=O)c3ccc(C)c(C#Cc4cnc5c(Nc6ccc(C)cn6)cccn45)c3)cc2C(F)(F)F)CC1` [Example 21, N-(4-((4-ethylpiperazin-1-yl)methyl)-3-(trifluoromethyl)phenyl)-4-methyl-3-((8-((5-methylpyridin-2-yl)amino)imidazo[1,2-a]pyridin-3-yl)ethynyl)benzamide], the IC50 was 1650 nM in the assay on MDA-MB-231; below 100 nM with RET (LC2/ad-CDC6); 1850 nM in the assay with Huh7; 1480 nM in the assay on SK-MEL-28; 15 nM in the assay on K562; 1850 nM in the assay with A375. Further, the GI50 on T315I (Ba/F3) stood at 149 nM.
Turning to `Cc1ccc(Nc2cccn3c(C#Cc4cc(C(=O)Nc5ccc(CN6CCN(C)CC6)c(C(F)(F)F)c5)ccc4C)cnc23)cc1` [Example 24, 4-methyl-N-(4-((4-methylpiperazin-1-yl)methyl)-3-(trifluoromethyl)phenyl)-3-((8-(p-toylamino)imidazo[1,2-a]pyridin-3-yl)ethynyl)benzamide], the IC50 with MDA-MB-231 was 3600 nM; in the assay with RET (LC2/ad-CDC6), below 1000 nM; with Huh7 it was 11300 nM; with SK-MEL-28, 2630 nM; in the assay with K562, 45 nM; with A375, 3520 nM. Moreover, the GI50 at T315I (Ba/F3) turned out to be 668 nM.
Consider `CCN1CCN(Cc2ccc(NC(=O)c3ccc(C)c(C#Cc4cnc5c(Nc6ccc(C)cc6)cccn45)c3)cc2C(F)(F)F)CC1` [Example 25, N-(4-((4-ethylpiperazin-1-yl)methyl)-3-(trifluoromethyl)phenyl)-4-methyl-3-((8-(p-toylamino)imidazo[1,2-a]pyridin-3-yl)ethynyl)benzamide], for which the IC50 was 3040 nM in the assay on MDA-MB-231; below 1000 nM with RET (LC2/ad-CDC6); 17300 nM in the assay on Huh7; 2090 nM in the assay on SK-MEL-28; 52 nM in the assay with K562; 3710 nM with A375. For the same molecule, the GI50 on T315I (Ba/F3) is 619 nM.
`COCCn1cc(Nc2cccn3c(C#Cc4cc(C(=O)Nc5ccc(CN6CCN(C)[C@@H](C)C6)c(C(F)(F)F)c5)ccc4C)cnc23)cn1` [Example 44, (S)—N-(4-((3,4-dimethylpiperazin-1-yl)methyl)-3-(trifluoromethyl)phenyl)-3-((8-((1-(2-methoxyethyl)-1H-pyrazol-4-yl)amino)imidazo[1,2-a]pyridin-3-yl)ethynyl)-4-methylbenzamide]: the IC50 came to 38.8 nM in the assay on M-NFS-60; 240 nM in the assay with MDA-MB-231; 10 nM in the assay on RET (LC2/ad-CDC6); 165 nM in the assay on Huh7; 12 nM in the assay on K562; 183 nM in the assay on A375. The GI50 at T315I (Ba/F3) is 42.2 nM.
Turning to `Cc1ccc(C(=O)Nc2ccc(CN3CC[C@@H](N(C)C)C3)c(C(F)(F)F)c2)cc1C#Cc1cnc2c(Nc3cnn(C)c3)cccn12` [Example 50, (R)—N-(4-((3-(dimethylamino)pyrrolidin-1-yl)methyl)-3-(trifluoromethyl)phenyl)-4-methyl-3-((8-((1-methyl-1H-pyrazol-4-yl)amino)imidazo[1,2-a]pyridin-3-yl)ethynyl)benzamide], the IC50 in the assay on M-NFS-60 was 40.3 nM; in the assay with MDA-MB-231, 325 nM; with RET (LC2/ad-CDC6) it was above 10 nM; in the assay on Huh7, 57 nM; in the assay with K562, below 1 nM; with A375 it was 224 nM. In addition, the GI50 at T315I (Ba/F3) turned out to be 28.2 nM.
For `Cc1ccc(C(=O)Nc2ccc(CN3CC[C@H](N(C)C)C3)c(C(F)(F)F)c2)cc1C#Cc1cnc2c(Nc3cnn(C)c3)cccn12` [Example 51, (S)—N-(4-((3-(dimethylamino)pyrrolidin-1-yl)methyl)-3-(trifluoromethyl)phenyl)-4-methyl-3-((8-((1-methyl-1H-pyrazol-4-yl)amino)imidazo[1,2-a]pyridin-3-yl)ethynyl)benzamide], the IC50 is 31.1 nM in the assay with M-NFS-60; 319 nM in the assay with MDA-MB-231; above 10 nM in the assay on RET (LC2/ad-CDC6); 87.8 nM with Huh7; below 1 nM in the assay with K562; 249 nM in the assay with A375. For the same molecule, the GI50 on T315I (Ba/F3) worked out at 28.8 nM.
Turning to `Cc1ccc(C(=O)Nc2ccc(CN3CCN(C)CC3)c(C(F)(F)F)c2)cc1C#Cc1cnc2c(Nc3cccc(C(C)(C)O)n3)cccn12` [Example 64, 3-((8-(6-(2-hydroxypropan-2-yl)pyridin-2-yl)aminoimidazo[1,2-a]pyridin-3-yl)ethynyl)-4-methyl-N-(4-((4-methylpiperazin-1-yl)methyl)-3-(trifluoromethyl)phenyl)benzamide], the IC50 was 127 nM in the assay on M-NFS-60; 987 nM with MDA-MB-231; above 10 nM in the assay with RET (LC2/ad-CDC6); 3 nM with K562; 741 nM in the assay with A375. The GI50 at T315I (Ba/F3) turned out to be 75 nM.
In the case of `Cc1ccc(NC(=O)Nc2cccc(C(F)(F)F)c2)cc1C#Cc1cnc2c(Nc3cnn(C(C)C)c3)cccn12` [Example 83, 1-(3-((8-((1-isopropyl-1H-pyrazol-4-yl)amino)imidazo[1,2-a]pyridin-3-yl)ethynyl)-4-methylphenyl)-3-(3-(trifluoromethyl)phenyl)urea], the IC50 in the assay with MDA-MB-231 came to 5700 nM; in the assay with RET (LC2/ad-CDC6) it was 1000 nM; in the assay with Huh7, 2180 nM; in the assay on SK-MEL-28, 1440 nM; in the assay on K562, 20 nM; in the assay with A375 it was 5160 nM. Further, the GI50 at T315I (Ba/F3) was determined as 627 nM.
